Experiments:
recombinant human SRPK1 = recombinant human SRPK1 (Homo sapiens, UniProt Q96SB4); test: In vitro kinase assay (Life Technologies), SRPK1; type: biochemical; details: two independent assays
Clks = test: In vitro kinase assays (Millipore), CX-4945 compared with TG-003 on Clks; type: biochemical, human; details: Figure S6
Protocol: All experiments were performed twice.

Huh7 cells = test: RT-PCR of Bcl-X and RON alternative splicing in Huh7 cells; type: cell-based, human; details: 12 hours
Protocol: (§1) To analyze the effect of compounds on pre-mRNA splicing, 293T, Huh7, and HepG2 cells were treated with the indicated concentrations. Total RNAs were extracted using the TRIzol reagent (Invitrogen) followed by cDNA synthesis using the Omniscript RT kit (Qiagen) and an oligo-dT primer. PCR was performed at 95°C for 30 s, 55°C for 30 s, and 72°C for 1 min for 35 cycles using GoTaq Green Master Mix (Promega). Quantitative real-time PCR analysis was performed using the BioRad IQ SYBR Green Supermix. All gene expression experiments were performed independently at least twice.

[1] = system: CK2-mediated phosphorylation of AKT at S129; test: Western blot of AKT(S129) phosphorylation (CK2-specific site) in 293T cells; type: cell-based, human; details: 12 hours
HepG2 cells = test: Quantitative real-time PCR of gluconeogenic genes in HepG2 cells; details: 12 hours
recombinant human SRPK2 = recombinant human SRPK2 (Homo sapiens, UniProt P78362); test: In vitro kinase assay (Life Technologies), SRPK2; type: biochemical; details: two independent assays
recombinant human Clk3 = recombinant human Clk3 (Homo sapiens, UniProt P49761); test: In vitro kinase assay (Life Technologies), Clk3; type: biochemical
SRPKs (SRPK1 and SRPK2) = test: In vitro kinase assays, SRPK family as a whole; type: biochemical, human
293T cells [2] = test: Affymetrix exon array, transcriptome-wide splicing in 293T cells; type: cell-based, human; details: 10 µM, 12 hours
Protocol: The fragmented and end-labeled single-stranded cDNAs were prepared and hybridized to Affymetrix-GeneChip Human Exon 1.0 ST arrays (Affymetrix). Affymetrix Expression Console Software was used to perform quality assessment. Affymetrix exon array data was analyzed using GeneSpring 12.6 inclusive of GX (Agilent Technologies). Three independent experimental samples were examined.
Transcriptome analysis with the Affymetrix GeneChip Human Exon 1.0 ST Array, which contains multiple probes per exon, allowed us to search for variations at the exon level. […] Further analysis characterized the 8,968 affected exons into 1,555 included exons and 7,413 skipped exons. To validate this observation, we randomly chose 15 exons from those affected by more than 2-fold and examined alterations in alternative splicing using RT-PCR of the same total RNAs used in the exon array experiments. Representative mRNAs containing selected exons are illustrated by heat maps, and all of the selected exons were denoted by black underlines (Figure 2A). […] Different exons are commonly affected differentially by a stimulus or splicing inhibition, depending on cis-acting elements on exon/intron and activities of trans-acting factors.
(§2) The cDNA was synthesized and further processed for exon array as described in Materials and Methods. All experiments were performed three times, and representative heat maps of selected transcripts from the exon arrays are shown. Selected exons for each mRNA are highlighted with black underlines. (B) RT-PCR analysis was performed for the ELL2, SPAST, QRSL1, PRPSAP2, CPEB1, USP38, TRIP4, CTDSPL2, WDFY1 and ZCCHC2 genes with the same RNA used for the exon arrays. The exonic structure of the RT-PCR products and the exonic location of PCR primers are indicated with tandem rectangles and arrowheads, respectively. PCR products were quantified using ImageJ software, and the ratios of skipped product (skipped/total PCR product) were calculated.

[3] = system: SR protein phosphorylation; test: Western blot of phosphorylated SR proteins (mAb 1H4) in 293T cells; type: cell-based, human; details: for alteration of SR protein phosphorylation: 100 µM, 12 hour, Figure S5
293T cells [4] = test: RT-PCR analysis of alternative pre-mRNA splicing in 293T cells; type: cell-based, human
Protocol: Cells (293T, Huh7, and HepG2) were cultured in Dulbecco's modified Eagle's medium (DMEM) containing 10% fetal bovine serum (FBS; Hyclone) supplemented with 1% penicillin and streptomycin. […] The 293T cells were transfected in 6-well plates with siRNAs (Bioneer) at a final concentration of 100 nM using Lipofectamine RNAiMax (Invitrogen) according to the manufacturer's instructions.
as §1, §2
Total levels of AKT were also monitored as a control. hnRNP A1 was used as a loading control. (B) Alternatively spliced CK2 α′, ELL2, CPEB1, PRPSAP2, and QRSL1 mRNAs were examined by RT-PCR. PCR products of normal and alternatively spliced isoforms are denoted by black arrowheads. An extra PCR product of the QRSL1 gene appeared in TBB-treated samples and is denoted by an asterisk. All experiments were performed twice, and representative data for each are presented.

[5] = target: Clks (Clk1, Clk2, and Clk3); test: In vitro kinase assays, Clk family as a whole; type: biochemical, human; details: range over Clk1, Clk2, Clk3; read-out: IC50 on Clks (all three Clks, Clk1-3)
293T cells [6] = test: Quantitative real-time PCR of CK2 α′ mRNA levels in 293T cells; type: cell-based, human; details: qPCR, primers to exon 7, Figure S1
Protocol: as §1
Figure S1. […] Quantitative real-time PCR was performed with total RNA from DMSO- and CX-4945-treated 293T cells. The amount of normal CK2 α’ mRNA was measured using primers corresponding to exon 6, and the total amount of normal CK2 α’ mRNA and the smaller-sized CK2 α’ mRNA was measured using primers corresponding to exon 7. The values for DMSO-treated samples were set to 1, and the relative amounts were calculated. The average and SD values were determined from three independent experiments.

[7] = system: Clk1 and Clk4 over Clk2 and Clk3; set-up: method as in PMID 15010457; details: cited from earlier work

recombinant human SRPK1, sequence (Q96SB4 whole entry): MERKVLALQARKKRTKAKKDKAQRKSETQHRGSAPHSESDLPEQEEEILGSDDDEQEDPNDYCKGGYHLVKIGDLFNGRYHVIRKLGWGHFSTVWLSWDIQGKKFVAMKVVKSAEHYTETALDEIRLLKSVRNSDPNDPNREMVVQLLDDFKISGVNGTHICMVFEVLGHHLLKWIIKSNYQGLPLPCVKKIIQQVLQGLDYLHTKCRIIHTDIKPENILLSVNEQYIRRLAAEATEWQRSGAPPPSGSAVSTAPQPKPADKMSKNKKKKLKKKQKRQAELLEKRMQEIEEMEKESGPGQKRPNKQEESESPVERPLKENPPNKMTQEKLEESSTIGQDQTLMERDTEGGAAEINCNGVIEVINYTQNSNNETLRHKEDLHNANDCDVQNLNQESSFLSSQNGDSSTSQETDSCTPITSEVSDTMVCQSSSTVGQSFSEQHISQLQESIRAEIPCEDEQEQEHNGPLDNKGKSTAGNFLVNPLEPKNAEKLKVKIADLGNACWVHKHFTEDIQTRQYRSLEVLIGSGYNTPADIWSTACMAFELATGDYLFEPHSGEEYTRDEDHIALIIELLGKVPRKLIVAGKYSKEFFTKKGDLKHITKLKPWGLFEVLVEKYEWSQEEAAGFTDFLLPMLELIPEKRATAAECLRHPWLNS
recombinant human SRPK2, sequence (P78362 whole entry): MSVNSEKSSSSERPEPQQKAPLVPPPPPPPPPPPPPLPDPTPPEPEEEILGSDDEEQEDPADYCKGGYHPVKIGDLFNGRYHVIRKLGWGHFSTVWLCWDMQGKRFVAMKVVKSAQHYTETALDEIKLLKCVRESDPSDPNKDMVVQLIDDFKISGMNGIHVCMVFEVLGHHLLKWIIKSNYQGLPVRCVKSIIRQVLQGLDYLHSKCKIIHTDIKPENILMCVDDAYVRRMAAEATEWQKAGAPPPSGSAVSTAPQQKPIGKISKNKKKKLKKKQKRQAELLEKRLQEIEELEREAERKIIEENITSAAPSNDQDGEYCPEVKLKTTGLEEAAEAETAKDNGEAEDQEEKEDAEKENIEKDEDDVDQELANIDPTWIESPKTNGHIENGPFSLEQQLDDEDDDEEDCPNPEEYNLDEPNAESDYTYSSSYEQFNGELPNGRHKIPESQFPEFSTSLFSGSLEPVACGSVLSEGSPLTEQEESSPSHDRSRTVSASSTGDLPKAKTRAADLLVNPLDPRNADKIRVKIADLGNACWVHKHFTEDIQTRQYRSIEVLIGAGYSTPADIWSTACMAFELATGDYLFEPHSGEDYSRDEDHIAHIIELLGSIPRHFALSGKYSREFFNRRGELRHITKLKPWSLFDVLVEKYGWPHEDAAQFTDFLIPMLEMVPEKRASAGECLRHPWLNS
recombinant human Clk3, sequence (P49761 whole entry): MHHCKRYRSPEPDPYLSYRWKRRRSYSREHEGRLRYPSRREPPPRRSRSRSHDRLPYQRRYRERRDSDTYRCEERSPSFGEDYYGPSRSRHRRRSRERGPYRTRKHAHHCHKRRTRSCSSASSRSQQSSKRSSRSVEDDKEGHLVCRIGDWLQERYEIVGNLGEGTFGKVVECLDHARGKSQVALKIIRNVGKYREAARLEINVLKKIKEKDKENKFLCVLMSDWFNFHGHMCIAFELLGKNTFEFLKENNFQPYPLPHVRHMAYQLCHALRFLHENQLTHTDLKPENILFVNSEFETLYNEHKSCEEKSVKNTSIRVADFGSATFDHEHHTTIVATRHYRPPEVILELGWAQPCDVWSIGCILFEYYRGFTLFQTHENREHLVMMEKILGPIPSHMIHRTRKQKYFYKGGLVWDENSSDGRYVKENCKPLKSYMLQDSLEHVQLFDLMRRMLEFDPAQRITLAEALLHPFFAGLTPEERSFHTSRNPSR

For `O=C(O)c1ccc2c(c1)nc(Nc1cccc(Cl)c1)c1ccncc12` [CX-4945], the IC50 (recombinant human SRPK1) was 1230 nM, the “overall efficacies on Clks compared with TG-003” value (Clks) was “much stronger than those of TG-003” and the “normal alternative splicing of Bcl-X and RON pre-mRNAs” value (Huh7 cells) was “alteration of normal alternative splicing”. The “CK2-mediated phosphorylation of AKT at S129” value (from here on “CK2-mediated phosphorylation”) ([1]; 10 µM) was “efficiently blocked”, the “G6Pase and PEPCK gene expression” value (HepG2 cells) was “induced” and the IC50 (recombinant human SRPK2) was 1110 nM. The IC50 (recombinant human Clk3) was 90 nM, the IC50 (SRPKs (SRPK1 and SRPK2)) was > 1000 nM and the “included exons among the affected exons” value (293T cells [2]) was 1,555 exons. The “skipped exons among the affected exons” value (293T cells [2]) was 7,413 exons, the “genes affected at the whole-transcript level” value (293T cells [2]; 82 out of 18,673 genes) was 0.44% and the “regulatory efficacy on SR protein phosphorylation compared with TG-003” value ([3]; 1 µM CX-4945 versus 10 µM TG-003, 1 hour) was “stronger than that of TG-003”. The “levels of phosphorylated SRSF4, SRSF6, SRSF5, and SRSF1” value ([3]; 1 and 10 µM, 1 hour) was “considerably decreased”, the “phosphorylation of SRSF3” value ([3]; 1 and 10 µM, 1 hour) was “not affected” and the “upper band of phospho-SRSF6 (hyperphosphorylated SRSF6)” value ([3]; 1 and 10 µM, 1 hour) was “dramatically increased”. The “dose dependence of effect on phosphorylation of SR proteins” value ([3]; 1 versus 10 µM, 1 hour) was “dose-dependent”, the “amount of PCR product corresponding to normal CK2 α′” value (293T cells [4]; 10 µM, 12 hours, compared with DMSO) was “reduced” and the “splicing of Clk1/Sty pre-mRNA” value (293T cells [4]; 12 hours, 293T) was “changes in splicing”. The “time of appearance of new product CK2 α′△ (exon6-skipped)” value (293T cells [4]; time course following exposure, 293T) was “as early as 2 or 3”, the IC50 [5] was 3 to 90 nM and the “total amount of normal CK2 α′ and smaller-sized CK2 α′ mRNA” value (293T cells [6]) was “not altered”.

In the case of `Brc1c(Br)c(Br)c2[nH]nnc2c1Br` [TBB, 4,5,6,7-tetrabromobenzotriazole], the “CK2-mediated phosphorylation” value ([1]; 100 µM) is reported as “efficiently blocked”, the “alteration of SR protein phosphorylation” value [3] is reported as “did not induce the alteration” and the “changes in alternative splicing of selected genes (CK2 α′, ELL2, CPEB1, PRPSAP2, QRSL1)” value (293T cells [4]; 100 µM, 12 hours) is reported as “negligible effect”. The “extra PCR product of QRSL1 (cryptic splicing, 3′ part of exon 11)” value (293T cells [4]; 100 µM, 12 hours) was “induced the appearance of an additional PCR product”.

For `O=C(O)/C=C/c1cc(Br)c(Br)c(Br)c1Br` [TBCA, tetrabromocinnamic acid], the “CK2-mediated phosphorylation” value ([1]; 100 µM) was “efficiently blocked”, the “alteration of SR protein phosphorylation” value [3] was “did not induce the alteration” and the “changes in alternative splicing of selected genes (CK2 α′, ELL2, CPEB1, PRPSAP2, QRSL1)” value (293T cells [4]; 100 µM, 12 hours) was “negligible effect”.

In the case of `CCN1/C(=C/C(C)=O)Sc2ccc(OC)cc21` [TG-003], the “preferential efficacy on Clk1 and Clk4 over Clk2 and Clk3” value [7] is given as “at least 5 fold”.
